Measurements reported in BindingDB's records for doi:10.1016/j.ejmech.2015.02.042 (University of Naples, 2015).

Key:
[1] = target: Prostaglandin E synthase (Homo sapiens) (UniProt O14684); experiment: Inhibition of human mPGES1
[2] = target: Prostaglandin E synthase (Homo sapiens) (UniProt O14684); experiment: Inhibition of mPGES1 in IL-1beta stimulated human A549 cell microsomal membranes assessed as reduction in PGE2 synthase activity after 15 mins using PGH2 substrate by RP-HPLC method

Chain of Prostaglandin E synthase (Homo sapiens) (O14684 whole entry, looked up): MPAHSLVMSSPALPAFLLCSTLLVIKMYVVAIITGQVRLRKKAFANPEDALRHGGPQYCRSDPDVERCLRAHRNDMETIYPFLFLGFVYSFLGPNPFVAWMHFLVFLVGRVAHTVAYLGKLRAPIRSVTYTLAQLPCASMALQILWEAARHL

How did the IC50 [1] turn out when `CCCCCCCCCCCC1=C(O)C(=O)C=C(O)C1=O` [CHEBI:4778] was run?
The IC50 was 0.21 µM.

And the IC50 [2]?
The IC50 was 0.21 µM.

`CCCCCCC1=C(O)C(=O)C=C(O)C1=O` was tested. Which IC50 [2] did it give?
Its IC50 is over 10 µM.

With `CCCCCCCCC1=C(OC)C(OC)=CC(=O)C1=O` as the compound, how does the IC50 [2] read?
The IC50 was over 10 µM.

With `CCCCCCCCCCCCCCCC1=C(OC)C(OC)=CC(=O)C1=O` as the compound, how does the IC50 [2] read?
The IC50 was over 10 µM.

Which IC50 [2] does the source give for `CCCCCCCCCCCCC1=C(O)C(=O)C=C(O)C1=O` here?
Its IC50 is 3.1 µM.

Which IC50 [2] does the source give for `CCCCCCCCCCCC1=C(OC)C(OC)=CC(=O)C1=O` here?
Its IC50 is over 10 µM.

With `CCCCCCCCCCCCCCCC1=C(OC)C(=O)C=C(OC)C1=O` as the compound, how does the IC50 [2] read?
Its IC50 is 7.2 µM.

With `CCCCCCCCCCCCC1=C(OC)C(=O)C=C(OC)C1=O` as the compound, how does the IC50 [2] read?
Its IC50 is 4.7 µM.

How did the IC50 [2] turn out when `CCCCCCCCCCCCC1=C(OC)C(OC)=CC(=O)C1=O` was run?
Its IC50 is over 10 µM.

With `CCCCCCCCCCCCCCCCC1=C(O)C(=O)C=C(OC)C1=O` as the compound, how does the IC50 [2] read?
Its IC50 is over 10 µM.

With `CCCCCCCCCCCCCC1=C(O)C(=O)C=C(O)C1=O` [CHEBI:8779] as the compound, how does the IC50 [2] read?
Its IC50 is 0.9 µM.

Which IC50 [2] does the source give for `CCCCCCC1=C(OC)C(=O)C=C(OC)C1=O` here?
Its IC50 is over 10 µM.

How did the IC50 [2] turn out when `CCCCCCCCCCCCCCCCC1=C(OC)C(=O)C=C(OC)C1=O` was run?
The IC50 was over 10 µM.

`CCCCCCCCCCCCCCCCC1=C(O)C(=O)C=C(O)C1=O` was tested. Which IC50 [2] did it give?
Its IC50 is over 10 µM.

With `CCCCCCCCCCC1=C(O)C(=O)C=C(O)C1=O` as the compound, how does the IC50 [2] read?
Its IC50 is 1 µM.

For `COC1=CC(=O)C(O)=C(C/C=C(\C)CCC=C(C)C)C1=O`, which IC50 [2] is on record?
Its IC50 is over 10 µM.

For `COC1=CC(=O)C(=O)C(C/C=C(\C)CC/C=C(\C)CCC=C(C)C)=C1OC`, which IC50 [2] is on record?
Its IC50 is over 10 µM.

Which IC50 [2] does the source give for `COC1=CC(=O)C(O)=C(C/C=C(\C)CC/C=C(\C)CCC=C(C)C)C1=O` here?
The IC50 was over 10 µM.

Which IC50 [2] does the source give for `COC1=CC(=O)C(=O)C(C/C=C(\C)CCC=C(C)C)=C1OC` here?
Its IC50 is over 10 µM.

For `CC(C)=CCC/C(C)=C/CC1=C(O)C(=O)C=C(O)C1=O`, which IC50 [2] is on record?
Its IC50 is over 10 µM.

For `CCCCCCCCCCCCCC1=C(OC)C(OC)=CC(=O)C1=O`, which IC50 [2] is on record?
Its IC50 is over 10 µM.

For `CCCCCCC1=C(O)C(=O)C=C(OC)C1=O`, which IC50 [2] is on record?
The IC50 was over 10 µM.

With `CCCCCCCCCCCCCCC1=C(O)C(=O)C=C(OC)C1=O` as the compound, how does the IC50 [2] read?
Its IC50 is over 10 µM.

Which IC50 [2] does the source give for `CCCCCCCCCCCCCCC1=C(OC)C(OC)=CC(=O)C1=O` here?
Its IC50 is over 10 µM.

`CCCCCCC1=C(OC)C(OC)=CC(=O)C1=O` was tested. Which IC50 [2] did it give?
Its IC50 is over 10 µM.

How did the IC50 [2] turn out when `CCCCCCCCCCCCCCC1=C(OC)C(=O)C=C(OC)C1=O` was run?
The IC50 was 4.4 µM.

`CCCCCCCCCCCCCCC1=C(O)C(=O)C=C(O)C1=O` was tested. Which IC50 [2] did it give?
Its IC50 is 1.6 µM.

With `CCCCCCCCCCCC1=C(O)C(=O)C=C(OC)C1=O` [CHEBI:65842] as the compound, how does the IC50 [2] read?
Its IC50 is 9.1 µM.

How did the IC50 [2] turn out when `CCCCCCCCCCCCCC1=C(OC)C(=O)C=C(OC)C1=O` was run?
Its IC50 is 1.8 µM.

With `CCCCCCCCC1=C(O)C(=O)C=C(O)C1=O` as the compound, how does the IC50 [2] read?
Its IC50 is 0.8 µM.

How did the IC50 [2] turn out when `CCCCCCCCCCC1=C(OC)C(=O)C=C(OC)C1=O` was run?
The IC50 was over 10 µM.

For `CCCCCCCCCCCCCCCC1=C(O)C(=O)C=C(OC)C1=O`, which IC50 [2] is on record?
Its IC50 is 9.3 µM.

With `COC1=CC(=O)C(OC)=C(C/C=C(\C)CCC=C(C)C)C1=O` as the compound, how does the IC50 [2] read?
The IC50 was over 10 µM.

`CCCCCCCCCCCC1=C(OC)C(=O)C=C(OC)C1=O` was tested. Which IC50 [2] did it give?
The IC50 was over 10 µM.

For `CCCCCCCCCCC1=C(OC)C(OC)=CC(=O)C1=O`, which IC50 [2] is on record?
Its IC50 is over 10 µM.

For `CCCCC1=C(O)C(=O)C=C(O)C1=O`, which IC50 [2] is on record?
Its IC50 is over 10 µM.

Which IC50 [2] does the source give for `CCCCCCCCCCCCCC1=C(O)C(=O)C=C(OC)C1=O` [Sorgoleone-364] here?
The IC50 was 6.1 µM.

Which IC50 [2] does the source give for `COC1=CC(=O)C(OC)=C(C/C=C(\C)CC/C=C(\C)CCC=C(C)C)C1=O` here?
Its IC50 is over 10 µM.

With `CCCCCCCCC1=C(O)C(=O)C=C(OC)C1=O` as the compound, how does the IC50 [2] read?
The IC50 was over 10 µM.

How did the IC50 [2] turn out when `CCCCCCCCCCCCC1=C(O)C(=O)C=C(OC)C1=O` was run?
Its IC50 is 5.8 µM.

With `CCCCCCCCCCC1=C(O)C(=O)C=C(OC)C1=O` as the compound, how does the IC50 [2] read?
Its IC50 is over 10 µM.

With `CCCCC1=C(O)C(=O)C=C(OC)C1=O` as the compound, how does the IC50 [2] read?
Its IC50 is over 10 µM.

For `CC(C)=CCC/C(C)=C/CC/C(C)=C/CC1=C(O)C(=O)C=C(O)C1=O`, which IC50 [2] is on record?
Its IC50 is over 10 µM.

`CCCCCCCCCCCCCCCC1=C(O)C(=O)C=C(O)C1=O` was tested. Which IC50 [2] did it give?
Its IC50 is 2.1 µM.

With `CCCCC1=C(OC)C(OC)=CC(=O)C1=O` as the compound, how does the IC50 [2] read?
The IC50 was over 10 µM.

How did the IC50 [2] turn out when `CCCCC1=C(OC)C(=O)C=C(OC)C1=O` was run?
The IC50 was over 10 µM.

For `CCCCCCCCC1=C(OC)C(=O)C=C(OC)C1=O`, which IC50 [2] is on record?
Its IC50 is over 10 µM.
